Like-named read-outs stand apart in the source and are kept apart here.
What was measured:
LuxR of Vibrio fischeri = LuxR of Vibrio fischeri (Aliivibrio fischeri, UniProt P12746, DEL21-21/INS42T/N22A/N23Y); assay type: cell-based; conditions: for induction of luminescence (LuxR activation) compared to 2-AA: 50 μM, 20 h of incubation, FIG. 10
[1] = test system: LuxR-regulated luminescence of Vibrio fischeri MJ-1; assay type: cell-based

LuxR of Vibrio fischeri, sequence (P12746 with tags, fused parts or gaps DEL21-21/INS42T/N22A/N23Y): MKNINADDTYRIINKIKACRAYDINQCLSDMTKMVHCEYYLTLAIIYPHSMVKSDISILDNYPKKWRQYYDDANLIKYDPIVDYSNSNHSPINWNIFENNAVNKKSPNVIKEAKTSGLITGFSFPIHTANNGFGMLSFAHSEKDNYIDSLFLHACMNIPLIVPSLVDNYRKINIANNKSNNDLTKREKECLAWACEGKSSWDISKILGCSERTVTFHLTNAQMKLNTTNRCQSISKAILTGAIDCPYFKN

Compound: Nc1ccccc1C=O [2-aminobenzaldehyde]
- induction of luminescence (LuxR activation) compared to 2-AA (LuxR of Vibrio fischeri): completely abolished the induction of luminescence

Compound: O=C(C[N+](=O)[O-])c1ccccc1 [2-nitroacetophenone]
- induction of luminescence (LuxR activation) compared to 2-AA (LuxR of Vibrio fischeri): could also activate LuxR, but to a lesser extent than 2-AA
- dose dependency of LuxR activation (LuxR of Vibrio fischeri; 1-50 μM): no dose dependency
- synergistic effects in the presence of AHL (LuxR of Vibrio fischeri; 1-50 μM): no dose dependency or synergistic effects in the presence of AHL were observed

Compound: CC(=O)c1cccc(N)c1 [3-aminoacetophenone]
- induction of luminescence (LuxR activation) compared to 2-AA (LuxR of Vibrio fischeri): completely abolished the induction of luminescence

Compound: CCCC(=O)CC(=O)N[C@H]1CCOC1=O [3-oxo-C6-HSL]
- luminescence of V. fischeri MJ-1 ([1]; 10 nM, FIG. 6): significant increase
- luminescence of V. fischeri MJ-1 ([1]; two repeats of the experiment (data not shown)): no luminescence was measured
- affinity towards LuxR relative to 2-AA (LuxR of Vibrio fischeri; as apparent from FIGS. 4 through 9): approximately three orders of magnitude higher

Compound: CC(=O)c1ccc(N)cc1 [4-aminoacetophenone]
- induction of luminescence (LuxR activation) compared to 2-AA (LuxR of Vibrio fischeri): completely abolished the induction of luminescence

Compound: CC(=O)c1ccccc1 [acetophenone]
- induction of luminescence (LuxR activation) compared to 2-AA (LuxR of Vibrio fischeri): completely abolished the induction of luminescence

Compound: Nc1ccccc1C(=O)O [anthranilic acid]
- induction of luminescence (LuxR activation) compared to 2-AA (LuxR of Vibrio fischeri): completely abolished the induction of luminescence

Compound: COC(=O)c1ccccc1N [methyl anthranilate]
- induction of luminescence (LuxR activation) compared to 2-AA (LuxR of Vibrio fischeri): completely abolished the induction of luminescence
